System: intimal hyperplasia after balloon injury of the carotid artery
Assay: Balloon injury model of the carotid artery
Format: in vivo, rat
Settings: CO 250 ppm for one hour prior to balloon injury; 14 days after injury; n=8-10
Source text: Animals. Male (250-350 g) Brown Norway rats (RT1^n) were used as aortic graft donors and male (250-350 g) Lewis rats (RT11) as recipients. Dawley (400-450 g) rats were used in the balloon injury model. Adult male C57BL/6, C57/S129, p21^−/− and p53^−/− null mice were purchased from Jackson Laboratory (Bar Harbor, Me.). mkk3^(−/−) null mice were generated as described Lu et al. (EMBO. 18:1845-1857 (1999)). The inos^−/− and enos^−/− mice were bred at the University of Pittsburgh. Aortic transplant model. Aortic transplantation was performed as described in Shimizu et al. (Nat. Med. 7:738-741 (2001)). Briefly, 3 to 4 cm of descending aorta was harvested from the donor and implanted between the renal arteries and the aortic bifurcation of the recipient. Both edges of the native abdominal aorta were ligated. Balloon injury model. Balloon angioplasty was carried out as described in Murakami et al. (Atherosclerosis 157:361-368 (2001)). […] [^3H]thymidine incorporation was measured by scintillation spectroscopy and presented as mean counts/min/well. […] Areas from eight to ten captured images were calculated using digital imaging software as number of pixels corresponding to those areas. Twenty-four to forty-eight sections from each group were statistically analyzed with SPSS software version 10. […]

SMILES: [C-]#[O+] [CO, carbon monoxide]
- Intimal hyperplasia, suppression compared to control animals exposed to air: 74±8%

— patent US7691416B2, “Methods of treating vascular disease” (priority 2002, dated 2010)
